In US20250101488A1, “RAPID DIAGNOSTIC DRY REAGENT TEST FOR ANTIBIOTIC RESISTANCE, AND METHODS OF USE AND METHODS OF MAKING THEREOF” (BioAmp Diagnostics, Inc., priority 2022, published 2025):
Entries after “also recorded” stand apart in the source; their conditions may differ. Read-outs that look alike come from different tables or passages of the source.

How the values were obtained:
[1] = tested on: cefotaxime (CTX) non-susceptible Gram-negative bacteria (GNB); assay: DETECT assay with 96-bacterial isolate panel, ROC curve analysis against cefotaxime (CTX) phenotype; type: cell-based; details: 2.5×10^6 CFU/mL, DETECT score A405 nm 30 min minus 0 min; for Sensitivity (ROC Curve Analyzed with CTX): 96-bacterial isolate panel (47 CTX susceptible, 49 CTX non-susceptible); for AUC (95% CI) (ROC Curve Analyzed with CTX) / Specificity (ROC Curve Analyzed with CTX): 96-bacterial isolate panel
Text: A pool of 5 probe hits were each evaluated using a 96-bacterial isolate panel. In these studies, the 96-bacterial isolate panel was comprised of 47 cefotaxime (CTX) susceptible and 49 CTX non-susceptible, Gram-negative bacteria (GNB). As described above, CTX is a surrogate to detect ceftriaxone susceptibility and, therefore, was applied as the reference phenotype to group true positive, CTX-non-susceptible (include both CTX resistant and intermediate), and true negative, CTX-susceptible. Whole cell suspensions were prepared to yield an experimental concentration of 2.5×10^6 CFU/mL. In a 96-well plate, wells were prepared with all DETECT reagents, except for the targeting probe under investigation. Bacterial suspensions were transferred to the prepared wells of the plate and an initial timepoint was recorded (0 minutes) upon addition of a stock solution of a given probe (Sub-1, (7R)-7-(2-(1H-tetrazol-1-yl)acetamido)-8-oxo-3-((phenylthio)methyl)-5-thia-1-azabicyclo[4.2.0]oct-2-ene-2-carboxylic acid (BAD-5835), (7R)-7-(3-methylisoxazole-5-carboxamido)-8-oxo-3-((phenylthio)methyl)-5-thia-1-azabicyclo[4.2.0]oct-2-ene-2-carboxylic acid (BAD-1468), (7R)-8-oxo-3-((phenylthio)methyl)-7-(2-(pyridin-3-yl)acetamido)-5-thia-1-azabicyclo[4.2.0]oct-2-ene-2-carboxylic acid (BAD-5627), and (7R)-8-oxo-3-((phenylthio)methyl)-7-((S)-piperidine-3-carboxamido)-5-thia-1-azabicyclo[4.2.0]oct-2-ene-2-carboxylic acid (BAD-3462), (7R)-8-oxo-7-(2-phenoxyacetamido)-3-((phenylthio)methyl)-5-thia-1-azabicyclo[4.2.0]oct-2-ene-2-carboxylic acid (BAD-7465)). The absorbance of the wells was collected at 405 nm at 0 and 30 minutes, using a simple benchtop plate reader. The “DETECT Score” values were then calculated for each sample by subtracting the 405 nm absorbance recorded at the 0-minute timepoint from the 30-minute timepoint. Therefore, each sample was identified to have a unique DETECT score that was then can be group into positive and negative phenotype subgroups for threshold value determination via ROC curve analysis.

[2] = Aqueous stability: non-selective hydrolysis of the probe, k(hydro); type: physicochemical; details: for Stability k(hydro): rate of non-selective hydrolysis of the probe and turn on of the DETECT system in the absence of its biomarker target
Description: In order to find use in rapid diagnostic tests, ESBL-targeting probes that had at least the following favorable criteria were evaluated: • 1. Aqueous stability—measured through non-selective hydrolysis • a. Favorable criteria: k(hydro)<0.0062 mM/min • 2. Activity towards target β-lactamase target CTX-M-15—measured using recombinant β-lactamase • a. Favorable criteria: k(β-lactamase)>0.0568 mM/min • 3. Activity towards off-target lower generation β-lactamase (prioritizing the most common, TEM-1b) • a. Favorable criteria: k(TEM-1b)<0.02135 mM/min

[3] = cited from earlier work
recombinant CTX-M-15 = recombinant CTX-M-15 (Escherichia coli, UniProt Q9EXV5); assay: Dry reagent test strip, Study 2: activation by recombinant CTX-M-15, reflectance; details: 1 or 4 nM CTX-M-15, read every 4 minutes for 20 minutes
Description: If the small molecule targeting probe was not severely affected by the fabrication process, then in the presence of CTX-M-15, it will be hydrolyzed and liberate the triggering unit to initiate the signaling cascade thus providing the yellow colorimetric response.
The sample test strip received 1 or 4 nM of β-lactamase, while the control received buffer and the reflectance was monitored every 4 minutes for 20 minutes (see FIG. 8B).

papain = biological target: T1, papain (Carica papaya, UniProt P00784); assay: Dry reagent test strip, Study 1: papain activation by cysteine, reflectance; details: coating and drying at 37° C.; judged by reflectance of control strip
T1 sequence (P00784 134-345): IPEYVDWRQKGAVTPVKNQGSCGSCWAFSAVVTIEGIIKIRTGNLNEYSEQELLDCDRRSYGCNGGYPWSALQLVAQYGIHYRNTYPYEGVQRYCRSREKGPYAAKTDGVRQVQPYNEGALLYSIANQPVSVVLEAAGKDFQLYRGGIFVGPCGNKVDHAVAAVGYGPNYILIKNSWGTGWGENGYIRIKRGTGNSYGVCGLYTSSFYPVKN
Description: The second coating consisted of adding the water-soluble components (buffer salts and papain) and dried a second time in the oven at 37° C. […] Multiple formulation combinations of the DETECT components were examined to determine optimal change of reflectance over time.
Excess solution is removed with glass rods and the paper placed in the oven and dried for 60 minutes at 37° C. In a dry room (relative humidity<20%), the dried filter paper is adhered onto a polyester film support. […] The order of applying the DETECT components typically includes adding the methanol soluble components first followed by the water-soluble components.
Papain activity by cysteine activation was assessed by using two test strips where one received 100 μM cysteine (sample) while the other received buffer (control).
In study 1, different formulations (i.e., different amounts of the papain and BAPA) were used to prepare strips to obtain the highest possible reflectance change when the yellow-colored signal is generated from activating papain (se FIG. 8) and measured with a Konica Minolta reflectance spectrophotometer. […]
Study 1. […] The difference of percent reflectance (% Rscore) between sample and control is determined by subtracting the percent reflectance of the control strip from the sample strip for each time point to yield an increasing % Rscore over time (see FIG. 9A-B).

recombinant CTX-M-15, sequence (Q9EXV5 entry or part of it): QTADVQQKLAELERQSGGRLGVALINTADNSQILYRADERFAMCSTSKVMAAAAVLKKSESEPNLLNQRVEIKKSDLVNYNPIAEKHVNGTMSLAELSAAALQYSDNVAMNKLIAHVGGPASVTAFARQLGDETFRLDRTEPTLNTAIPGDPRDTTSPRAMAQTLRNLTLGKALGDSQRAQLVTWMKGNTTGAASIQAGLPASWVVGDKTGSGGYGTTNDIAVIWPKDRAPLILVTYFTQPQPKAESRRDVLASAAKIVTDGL

**Q.** Which “Sensitivity (ROC Curve Analyzed with CTX)” value (“Sensitivity” below) [1] does the source give for `Cc1cc(C(=O)N[C@@H]2C(=O)N3C(C(=O)O)=C(CSc4ccccc4)CSC23)on1` (stereo partly drawn) [BAD-1468, (7R)-7-(3-methylisoxazole-5-carboxamido)-8-oxo-3-((phenylthio)methyl)-5-thia-1-azabicyclo[4.2.0]oct-2-ene-2-carboxylic acid] here?
**A.** The value was 0.8406.

**Q.** What about the “AUC (95% CI) (ROC Curve Analyzed with CTX)” value (“AUC (95% CI)” for short) [1] of the same molecule?
**A.** Its value is 0.8846.

**Q.** What about the “Specificity (ROC Curve Analyzed with CTX)” value (shortened to “Specificity”) [1] of the same molecule?
**A.** The value was 0.8519.

**Q.** And the “Stability k(hydro)” value [2]?
**A.** The value was 0.00198 M/min.

**Q.** Which extinction coefficient ([3]; absorbance wavelength of 405 nm) does the source give for `Nc1ccc([N+](=O)[O-])cc1` [p-nitroaniline] here?
**A.** Its extinction coefficient is 9,767 M-1 cm^−1.

**Q.** With `O=C(Cc1cccnc1)N[C@@H]1C(=O)N2C(C(=O)O)=C(CSc3ccccc3)CSC12` (stereo partly drawn) [BAD-5627, (7R)-8-oxo-3-((phenylthio)methyl)-7-(2-(pyridin-3-yl)acetamido)-5-thia-1-azabicyclo[4.2.0]oct-2-ene-2-carboxylic acid] as the molecule, how does the “Sensitivity” value [1] read?
**A.** The value was 0.9275.

**Q.** What about the “AUC (95% CI)” value [1] of the same molecule?
**A.** The value was 0.9614.

**Q.** What about the “Specificity” value [1] of the same molecule?
**A.** Its value is 0.9259.

**Q.** What about the “Stability k(hydro)” value [2] of the same molecule?
**A.** Its value is 0.00352 M/min.

**Q.** For `O=C(COc1ccccc1)N[C@@H]1C(=O)N2C(C(=O)O)=C(CSc3ccccc3)CSC12` (stereo partly drawn) [BAD-7465, (7R)-8-oxo-7-(2-phenoxyacetamido)-3-((phenylthio)methyl)-5-thia-1-azabicyclo[4.2.0]oct-2-ene-2-carboxylic acid], which “Sensitivity” value [1] is on record?
**A.** Its value is 0.7143.

**Q.** And the “AUC (95% CI)” value [1]?
**A.** The value was 0.7717.

**Q.** What about the “Specificity” value [1] of the same molecule?
**A.** The value was 0.8077.

**Q.** What about the “Stability k(hydro)” value [2] of the same molecule?
**A.** The value was 0.00161 M/min.

**Q.** For `O=C(Cc1ccccc1)N[C@@H]1C(=O)N2C(C(=O)O)=C(CSc3ccccc3)CSC12` (stereo partly drawn) [Sub-1, (7R)-8-oxo-7-(2-phenylacetamido)-3-((phenylthio)methyl)-5-thia-1-azabicyclo[4.2.0]oct-2-ene-2-carboxylic acid, reference compound], which “Sensitivity” value [1] is on record?
**A.** The value was 0.9206.

**Q.** And the “AUC (95% CI)” value [1]?
**A.** The value was 0.7717.

**Q.** And the “Specificity” value [1]?
**A.** The value was 0.8125.

**Q.** And the “stability and promiscuity characteristics for rapidly detecting ceftriaxone non-susceptibility directly from urine” value [2]?
**A.** Its value is “not adequate”.

**Q.** What about the “Stability k(hydro)” value [2] of the same molecule?
**A.** The value was 0.0062 M/min.

**Q.** For `O=C(O)C1=C(CSc2ccccc2)CSC2[C@H](NC(=O)[C@H]3CCCNC3)C(=O)N12` (stereo partly drawn) [BAD-3462, (7R)-8-oxo-3-((phenylthio)methyl)-7-((S)-piperidine-3-carboxamido)-5-thia-1-azabicyclo[4.2.0]oct-2-ene-2-carboxylic acid], which “Sensitivity” value [1] is on record?
**A.** The value was 0.8116.

**Q.** What about the “AUC (95% CI)” value [1] of the same molecule?
**A.** The value was 0.8717.

**Q.** What about the “Specificity” value [1] of the same molecule?
**A.** Its value is 0.8519.

**Q.** And the “Stability k(hydro)” value [2]?
**A.** The value was 0.00558 M/min.

**Q.** What does the source list for `O=c1ccc2nc3ccc(O)cc3oc-2c1` [resorufin]?
**A.** extinction coefficient ([3]; absorbance wavelength of 570 nm): 56,000 M^1 cm^−1; fluorescent quantum yield (ϕ) ([3]; in water): 0.74

**Q.** What does the source list for `O=C(Cn1cnnn1)N[C@@H]1C(=O)N2C(C(=O)O)=C(CSc3ccccc3)CSC12` (stereo partly drawn) [BAD-5835, (7R)-7-(2-(1H-tetrazol-1-yl)acetamido)-8-oxo-3-((phenylthio)methyl)-5-thia-1-azabicyclo[4.2.0]oct-2-ene-2-carboxylic acid]?
**A.** detection of recombinant CTX-M-15 on test strip (change in reflectance) (recombinant CTX-M-15): retained its ability to detect the presence of CTX-M-15; also recorded: significant change in reflectance; Sensitivity (ROC Curve Analyzed with CTX) [1]: 0.8823; AUC (95% CI) (ROC Curve Analyzed with CTX) [1]: 0.9586; Specificity (ROC Curve Analyzed with CTX) [1]: 0.9259; stability of the probe to the test strip fabrication process (papain): did NOT decompose; also recorded: did not show any sign of degradation; Stability k(hydro) [2]: 0.0044 M/min
